According to ChEMBL document CHEMBL4257225, “Compounds and compounds for use in methods for treating diseases or conditions mediated by protein disulfide isomerase” (2016):
Calls of active or inactive are those of the source. No cut-off for these calls is given here.

Legend:
[1] = molecular target: Protein disulfide-isomerase (Homo sapiens) (UniProt P07237); assay: Inhibition of PDI in human platelet rich plasma assessed as reduction in SFLLRN peptide-induced platelet aggregation preincubated for 30 mins followed by SFLLRN addition relative to control
[2] = species on record: Mus musculus; assay: Anti-platelet activity in mouse assessed as inhibition of laser injury-induced thrombus formation by measuring reduction in platelet accumulation in cremaster arterioles by microscopic method; format: functional, organism-based

Sequence of Protein disulfide-isomerase (Homo sapiens) (P07237 18-508 limits assumed): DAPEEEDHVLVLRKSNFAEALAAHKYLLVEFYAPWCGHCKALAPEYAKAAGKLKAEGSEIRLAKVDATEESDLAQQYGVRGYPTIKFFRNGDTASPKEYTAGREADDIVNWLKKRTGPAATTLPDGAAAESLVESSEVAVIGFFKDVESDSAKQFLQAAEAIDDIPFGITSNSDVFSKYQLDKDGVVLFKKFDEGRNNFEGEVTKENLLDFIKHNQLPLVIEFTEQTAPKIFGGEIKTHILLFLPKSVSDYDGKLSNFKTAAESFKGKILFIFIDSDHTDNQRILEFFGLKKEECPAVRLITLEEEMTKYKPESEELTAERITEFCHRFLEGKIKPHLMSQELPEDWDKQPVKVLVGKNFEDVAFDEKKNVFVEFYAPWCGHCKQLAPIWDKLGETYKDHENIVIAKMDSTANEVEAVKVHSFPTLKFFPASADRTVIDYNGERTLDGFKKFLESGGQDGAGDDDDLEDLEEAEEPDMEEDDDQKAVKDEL

Row | SMILES | inhibition [1] [%] | inhibition [2]
1 | CCOC(=O)C1(CCOc2ccccc2)CCN(C(=O)c2ccc(O)c(Cl)c2)CC1 | 100 | –
2 | CCOC(=O)C1(CCOc2ccccc2)CCN(Cc2ccc(O)c(Cl)c2)CC1 | 25 to 50 | Active
3 | CC(C)(C)OC(=O)C1(CCOc2ccccc2)CCN(Cc2ccc(O)c(Cl)c2)CC1 | 100 | –
